≈ marks a conversion by molar mass, not a printed value. Read-outs that look alike come from different tables or passages of the source.
What was measured:
Type in all cases: cell-based
[1] = test system: Gram-positive bacteria (55 strains); experiment: MIC by standard broth dilution against clinical DFI isolates, Gram-positive bacteria
Procedure: (§1) Preparation of test strains: In this example, foot specimens were collected from 49 patients with type II diabetes. Isolates were obtained from the specimens described above through homogenization, plating, and culture at 37° C., and after the removal of fungi and strains with poor growth or strains that could not be isolated and purified, a total of 69 clinical strains were obtained. Among these, 55 strains were Gram-positive bacteria and 14 strains were Gram-negative bacteria. Of the Gram-positive bacteria, 43 strains were staphylococci, including 18 Staphylococcus aureus strains, 8 Staphylococcus epidermidis strains, and 5 Staphylococcus lugdunensis strains. One ATCC standard strain was additionally used as a standard and quality control strain.
(§2) Determination of antibacterial activity: The minimum inhibitory concentration (MIC) and the minimum biofilm bactericidal concentration (MBBC) for in vitro biofilms of the compound of formula (I) and control drugs (see details in 2) against 69 clinically isolated diabetic foot infection clinical strains were evaluated using the standard broth dilution method and the in vitro biofilm culture and drug susceptibility methods reported in the literature.

[2] = test system: Gram-negative bacteria (14 strains); experiment: MIC by standard broth dilution against clinical DFI isolates, Gram-negative bacteria
Procedure: as §1, §2

[3] = test system: Gram-positive bacteria (55 strains); experiment: MBBC for in vitro biofilms of clinical DFI isolates, Gram-positive bacteria
Procedure: as §1
(§3) Preparation of biofilms: In a sterile environment, a single, identified, and thawed colony was picked with an inoculation loop and bacterial inoculums were adjusted to a 0.5 McFarland standard, which served as an initial bacterial inoculum. The bacterial inoculum was diluted in a 1:200 ratio by adding 50 μL of the initial bacterial inoculums to 10 mL of a CAMHB medium. 150 μL of the bacterial inoculums was transferred to a CBD plate using a pipette. The inoculated CBD plate was incubated in an incubator at 35±2° C. for 16-20 hours.
as §2

[4] = test system: Gram-negative bacteria (14 strains); experiment: MBBC for in vitro biofilms of clinical DFI isolates, Gram-negative bacteria
Procedure: as §1, §3, §2

[5] = test system: Staphylococci (43 strains); experiment: MIC against clinical DFI isolates, staphylococci total
Procedure: as §1, §2

[6] = test system: Staphylococcus aureus (18 strains); experiment: MIC against clinical DFI isolates, Staphylococcus aureus
Procedure: as §1, §2

[7] = test system: Staphylococcus epidermidis (8 strains); experiment: MIC against clinical DFI isolates, Staphylococcus epidermidis
Procedure: as §1, §2

[8] = test system: Staphylococci (43 strains); experiment: MBBC against biofilms of clinical DFI isolates, staphylococci total
Procedure: as §1, §3, §2

[9] = test system: Staphylococcus aureus (18 strains); experiment: MBBC against biofilms of clinical DFI isolates, Staphylococcus aureus
Procedure: as §1, §3, §2

[10] = test system: Staphylococcus epidermidis (8 strains); experiment: MBBC against biofilms of clinical DFI isolates, Staphylococcus epidermidis
Procedure: as §1, with “strain. […]” for “strain.”
as §2

[11] = Gram-positive bacteria (55 strains), clinical DFI isolates
[12] = Gram-positive bacteria (55 strains), clinical DFI isolates, read-out: MIC50
[13] = biofilms, Gram-positive bacteria (55 strains), read-out: MBBC50
[14] = biofilms, Gram-positive bacteria (55 strains), read-out: MBBC90
[15] = Staphylococci (43 strains), total
[16] = Staphylococci (43 strains), total, read-out: MIC50
[17] = Staphylococci (43 strains), total, read-out: MIC90
[18] = Staphylococcus aureus (18 strains)
[19] = Staphylococcus aureus (18 strains), read-out: MIC50
[20] = Staphylococcus aureus (18 strains), read-out: MIC90
[21] = biofilms, Staphylococci (43 strains), total, read-out: MBBC50
[22] = biofilms, Staphylococci (43 strains), total, read-out: MBBC90
[23] = biofilms, Staphylococcus aureus (18 strains)
[24] = biofilms, Staphylococcus aureus (18 strains), read-out: MBBC50
[25] = biofilms, Staphylococcus aureus (18 strains), read-out: MBBC90
[26] = biofilms, Gram-positive bacteria (55 strains)

SMILES | MIC90 [1, 11] [µg/mL] | MIC50 [1, 12] [µg/mL] | MIC50 [2] [µg/mL] | MIC90 [2] [µg/mL] | MBC [3, 13] [µg/mL] | MBC [3, 14] [µg/mL] | MBC ([4]; read-out: MBBC50) [µg/mL] | MBC ([4]; read-out: MBBC90) [µg/mL] | MIC range [5, 15] | MIC50 [5, 16] [µg/mL] | MIC90 [5, 17] [µg/mL] | MIC range [6, 18] | MIC50 [6, 19] [µg/mL] | MIC90 [6, 20] [µg/mL] | MIC range [7] | MBC [8, 21] [µg/mL] | MBC [8, 22] [µg/mL] | MBC [9, 24] [µg/mL] | MBC [9, 25] [µg/mL] | also measured
CO[C@H]1/C=C/O[C@@]2(C)Oc3c(C)c(O)c4c(O)c(c(/C=N/N5CCC(N(C)C6([C@@H]7CCN(c8c(F)cn9c(=O)c(C(=O)O)cc(C%10CC%10)c9c8C)C7)CC6)CC5)c(O)c4c3C2=O)NC(=O)/C(C)=C\C=C\[C@H](C)[C@H](O)[C@@H](C)[C@@H](O)[C@@H](C)[C@H](OC(C)=O)[C@@H]1C [Compound of formula (I)] | 0.25 | ≤ 0.015 | > 32 | > 32 | 0.125 | 16 | > 16 | > 32 | ≤0.015~0.25 μg/mL | ≤ 0.015 | ≤ 0.015 | ≤0.015~0.03 μg/mL | ≤ 0.015 | ≤ 0.015 | ≤0.015~0.03 ^ μg/mL | 0.06 | 0.5 | 0.25 | 0.5 | MIC50 ([1]; Gram-positive bacterial isolates, text b97): < 0.015 µg/mL; MIC50 ([5]; staphylococci, read-out: MIC50): < 0.015 µg/mL; MIC90 ([5]; staphylococci, read-out: MIC90): 0.015 µg/mL; MIC50 ([6]; Staphylococcus aureus, read-out: MIC50): < 0.015 µg/mL; MIC90 ([6]; Staphylococcus aureus, read-out: MIC90): 0.015 µg/mL; MBBC range ([8]; biofilms, Staphylococci (43 strains), total): ≤0.015~1 μg/mL; MBBC range ([8]; in vitro biofilms of staphylococci): 0.015 to 1 g/mL; MBBC50 ([8]; staphylococci biofilms): 0.06 µg/mL; MBBC90 ([8]; staphylococci biofilms): 0.5 µg/mL; MBBC50 ([9]; Staphylococcus aureus biofilms): 0.25 µg/mL; MBBC range [9, 23]: 0.03~0.5 μg/mL; MBBC range ([9]; in vitro biofilms of Staphylococcus aureus): 0.03 to 0.5 g/mL; MBBC range [10]: ≤0.015~0.06 ^ μg/mL
C/C(=C\C(=O)OCCCCCCCCC(=O)O)C[C@@H]1OC[C@H](C[C@@H]2O[C@H]2[C@@H](C)[C@H](C)O)[C@@H](O)[C@H]1O [Mupirocin] | 64 (≈ 128 µM) |  | > 128 | > 128 | > 128 | > 128 | > 128 | > 128 |  | 0.25 (≈ 0.499 µM) | 32 (≈ 63.9 µM) |  | 0.25 (≈ 0.499 µM) | > 128 | 0.25~0.5 μg/mL | > 128 | > 128 | > 128 | > 128 | 
CC(=O)NC[C@H]1CN(c2ccc(N3CCOCC3)c(F)c2)C(=O)O1 [Linezolid] |  |  | > 128 | > 128 | > 128 | > 128 | > 128 | > 128 | 0.5~4 μg/mL | 2 (≈ 5.93 µM) | 4 (≈ 11.9 µM) | 2~4 μg/mL | 2 (≈ 5.93 µM) | 4 (≈ 11.9 µM) | 2~4 μg/mL | > 128 | > 128 | > 128 | > 128 | MBBC50 [3, 26]: >128 µg/mL; MBBC90 [3, 26]: >128 µg/mL; MIC50 ([5]; staphylococci, read-out: MIC50): 2 µg/mL (≈ 5.93 µM); MIC90 ([5]; staphylococci, read-out: MIC90): 4 µg/mL (≈ 11.9 µM)
CN[C@H](CC(C)C)C(=O)N[C@H]1C(=O)N[C@@H](CC(N)=O)C(=O)N[C@H]2C(=O)N[C@H]3C(=O)N[C@H](C(=O)N[C@H](C(=O)O)c4cc(O)cc(O)c4-c4cc3ccc4O)[C@H](O)c3ccc(c(Cl)c3)Oc3cc2cc(c3O[C@@H]2O[C@H](CO)[C@@H](O)[C@H](O)[C@H]2O[C@H]2C[C@](C)(N)[C@H](O)[C@H](C)O2)Oc2ccc(cc2Cl)[C@H]1O [Vancomycin] | 2 (≈ 1.38 µM) | 2 (≈ 1.38 µM) | > 128 | > 128 |  |  | > 128 | > 128 | 1~4 μg/mL |  |  | 1~2 μg/mL |  |  | 2~4 μg/mL |  |  |  |  | MBBC50 [3, 26]: >128 µg/mL; MBBC90 [3, 26]: >128 µg/mL; MBC ([3]; read-out: MBBC50): > 128 µg/mL; MBC ([3]; read-out: MBBC90): > 128 µg/mL; MIC50 [5]: 2 µg/mL (≈ 1.38 µM); MIC90 [5]: 2 µg/mL (≈ 1.38 µM); MIC50 ([5]; staphylococci): 2 µg/mL (≈ 1.38 µM); MIC90 ([5]; staphylococci): 2 µg/mL (≈ 1.38 µM); MIC50 ([6]; Staphylococcus aureus): 2 µg/mL (≈ 1.38 µM); MIC90 ([6]; Staphylococcus aureus): 2 µg/mL (≈ 1.38 µM); MBC ([8]; read-out: MBBC50): > 128 µg/mL; MBC ([8]; read-out: MBBC90): > 128 µg/mL; MBC ([9]; Staphylococcus aureus, read-out: MBBC50): > 128 µg/mL; MBC ([9]; Staphylococcus aureus, read-out: MBBC90): > 128 µg/mL
CO[C@H]1/C=C/O[C@@]2(C)Oc3c(C)c(O)c4c(O)c(c(/C=N/N5CCN(C)CC5)c(O)c4c3C2=O)NC(=O)/C(C)=C\C=C\[C@H](C)[C@H](O)[C@@H](C)[C@@H](O)[C@@H](C)[C@H](OC(C)=O)[C@@H]1C [Rifampicin] | 0.5 (≈ 0.608 µM) | ≤ 0.015 | 32 (≈ 38.9 µM) | > 32 | 8 (≈ 9.72 µM) | > 16 | > 16 | > 32 |  | ≤ 0.015 | ≤ 0.015 | ≤0.015 µg/mL | ≤ 0.015 | ≤ 0.015 | ≤0.015 µg/mL | 4 (≈ 4.86 µM) | > 16 | 16 (≈ 19.4 µM) | > 16 | MBBC range [9, 23]: ≤0.03~16 ^ μg/mL; MBBC range [10]: 0.03~16 ^ μg/mL
CCC[C@@H]1C[C@@H](C(=O)N[C@@H]([C@H]2O[C@H](SC)[C@H](O)[C@@H](O)[C@H]2O)[C@H](C)Cl)N(C)C1 [Clindamycin] | > 128 | 0.25 (≈ 0.588 µM) | > 128 | > 128 | > 128 | > 128 | > 128 | > 128 |  |  | 128 (≈ 301 µM) | ≤0.06~0.5 μg/mL |  | 0.25 (≈ 0.588 µM) |  | > 128 | > 128 | > 128 | > 128 | MIC50 [5]: 0.125 µg/mL (≈ 0.294 µM); MIC50 ([6]; Staphylococcus aureus): 0.125 µg/mL (≈ 0.294 µM)
Cc1onc(-c2ccccc2)c1C(=O)N[C@@H]1C(=O)N2[C@@H]1SC(C)(C)[C@@H]2C(=O)O [Oxacillin] |  |  | > 128 | > 128 | > 128 | > 128 | > 128 | > 128 |  | 2 (≈ 4.98 µM) | 128 (≈ 319 µM) |  | 0.5 (≈ 1.25 µM) | 64 (≈ 159 µM) |  | > 128 | > 128 | 32 (≈ 79.7 µM) | > 128 | 
